Laboratory results: publication PMC6050476, “Pre-clinical Pharmacokinetic and Metabolomic Analyses of Isorhapontigenin, a Dietary Resveratrol Derivative” (Frontiers in Pharmacology, 2018)

Legend:
[1] = Stock solution stability of isorhapontigenin; assay type: physicochemical; conditions: 24 °C, 10 days; stock solution in DMSO
Procedure: Stock solutions of ISO were prepared by dissolution in DMSO and they were stored at room temperature. The stock solutions were further diluted using blank rat plasma to prepare the calibration standards and QC samples. The stock solution of IS was dissolved in acetonitrile to a concentration of 10 μg/mL. 100 μL IS solution was aliquoted into 1.5-mL polypropylene tubes for storage at −80°C. During sample preparation, this solution was further diluted to the working concentration of 10 ng/mL using acetonitrile containing 0.18 μM of disodium EDTA and stored at 4°C.
The dilution integrity was confirmed using a dilution factor of 20. In the presence of L-ascorbic acid (0.8 mg/mL), ISO appeared to stable in plasma; similarly, addition of EDTA in IS acetonitrile solution (0.18 μM) enhanced the post-preparative stability. The details in accuracy, precision, stability, and matrix effect can be found in Supplementary Tables S1–S3.

plasma metabolites = experiment: Plasma metabolomic profiling after 1-week isorhapontigenin intervention (GC–MS/MS); assay type: in vivo, Sprague-Dawley rats; conditions: 1-week daily oral ISO 100 μmol/kg vs vehicle, rat plasma
Procedure: (§1) Twenty-two rats were divided into four groups. Group 1 (n = 5) received a single bolus intravenous injection of ISO at the dose of 90 μmol/kg (23.2 mg/kg). Serial blood samples were collected before dosing and at 5, 15, 30, 60, 90, 120, 180, 240, 300, 420, 540, and 720 min after intravenous injection. Group 2 (n = 5) received a single oral administration of ISO at the dose of 200 μmol/kg (51.6 mg/kg). Serial blood samples were collected before dosing and at 15, 30, 45, 60, 90, 120, 180, 240, 300, 420, 540, and 720 min after oral gavage. Group 3 (n = 5) received daily oral pre-treatment of oral dosing vehicle (2 mL/kg) while Group 4 (n = 7) received daily oral pre-treatment of ISO at the dose of 100 μmol/kg (25.8 mg/kg) for 1 week. On day 7, ∼8–10 h after the last pre-treatment dose, surgery was performed on rats in Groups 3 and 4 for jugular vein cannulation, and blood samples were also collected from Groups 3 and 4 for metabolomic study. On day 8, the pharmacokinetic study was carried out on these two groups of animals at the dose of 100 μmol/kg (25.8 mg/kg) using the same blood sampling schedule as Group 2.
The plasma samples collected from rats receiving 1-week daily oral dosing of ISO at 100 μmol/kg (25.8 mg/kg) were subjected to metabolomic study using the rats receiving vehicle as control.
Plasma samples (30 μL aliquots in Eppendorf tubes) were thawed to room temperature (25°C). Myristic-d27 acid (20 μL of 200 μg/mL solution in methanol, IS) and 200 μL of methanol were added to each sample. Samples were vortexed for 5 min at room temperature and centrifuged for 10 min at 15,000 g (4°C). The top 200 μL of each supernatant was transferred to a glass centrifuge tube and dried under nitrogen gas. The dried samples were re-suspended in 100 μL of toluene, vortexed vigorously for 10 s, and dried again under nitrogen. A two-step derivatization method was used for chemical derivatization of the metabolites. Samples were first incubated with 50 μL of 2% methoxy-amine chloride in pyridine for 1.5 h at 60°C. Next, 50 μL of […] was added and the samples were incubated again for 1 h at 60°C. A total of 80 μL of derivatized samples were transferred to glass vials for GC–MS/MS analysis ([Chen et al., 2016a]). Pooled rat plasma from different plasma samples was used as QC and distilled water as blank samples. Two pooled plasma samples were injected before the first study sample and three pooled plasma samples were injected after every six study samples which serve as QC. The blank samples were injected at the beginning, at the middle, and at the end of the sample batch ([Phua et al., 2015]; [Chen et al., 2016a]).
GC–MS/MS analysis was performed using a Shimadzu TQ8040 gas chromatography-triple quadrupole mass spectrometer (Shimadzu Corporation, Japan). The GC injector port was set at 250°C and injection volume was 1 μL with a spilt ratio of 1:10. Chromatographic separation was achieved by a capillary column (BPX-5, 30 m × 0.25 mm × 0.25 μm, SGE Analytical Science, Australia) through constant helium carrier gas flow at 1.14 mL/min. The oven temperature was first held at 60°C for 2 min, followed by increasing temperature ramp of 15°C/min to 330°C, and then held at 330°C for 3 min. The interface and ion source were set at 280 and 200°C, respectively. The mass spectrometer was operated in the MRM mode.
The Shimadzu Smart Metabolites Database (Shimadzu Corporation, Japan) which contains a panel of 475 different endogenous metabolites was applied to identify the metabolites in rat plasma samples in this widely targeted metabolomics analysis. This database contains the retention indices and two MRM transitions of each of the 475 endogenous metabolites which facilitate simple, fast, and reliable metabolite identification and semi-quantification. This strategy has been successfully applied to many studies ([Hashimoto et al., 2017]; [Nishiumi et al., 2017]; [Tomonaga et al., 2018]). […]

[2] = Body weight before and after 1-week ISO intervention; assay type: in vivo, Sprague-Dawley rats; conditions: 1-week daily oral ISO 100 μmol/kg, normal diet; p = 0.74 and 0.89
Procedure: as §1
One-week daily oral dosing of ISO decreased plasma levels of some di-aminoacid and N-acetyl amino acids such as glycyl-glycine, N-acetyl-glycine, N-acetyl-glutamine, and N-acetyl-orthinine. […] In this study, the healthy Sprague-Dawley rats were fed with normal diet. […]

Stock solution stability (% remaining) [1]: 96.7 ± 3.0 % remaining
Compound: COc1cc(/C=C/c2cc(O)cc(O)c2)ccc1O [isorhapontigenin, trans-3,5,4′-trihydroxy-3′-methoxystilbene]
Fold change of plasma 2-Aminoisobutyric acid (plasma metabolites): 1.351 | Fold change of plasma 4-Hydroxyproline (plasma metabolites): 0.564 | Fold change of plasma Acetylglycine (plasma metabolites): 0.508 | Fold change of plasma Allantoin (plasma metabolites): 0.545 | Fold change of plasma Arachidonic acid (plasma metabolites): 0.789 | Fold change of plasma Aspartic acid (plasma metabolites): 0.475 | Fold change of plasma Cadaverine (plasma metabolites): 0.54 | Fold change of plasma Catechol (plasma metabolites): 1.411 | Fold change of plasma Cholesterol (plasma metabolites): 0.789 | Fold change of plasma Eicosapentaenoic acid (plasma metabolites): 0.762 | Fold change of plasma Fructose (plasma metabolites): 0.608 | Fold change of plasma Glycerol 2-phosphate (plasma metabolites): 0.73 | Fold change of plasma Glycyl-glycine (plasma metabolites): 0.648 | Fold change of plasma Linoleic acid (plasma metabolites): 0.82 | Fold change of plasma N-Acetyl-ornithine (plasma metabolites): 0.474 | Fold change of plasma N-Acetylglutamine (plasma metabolites): 0.804 | Fold change of plasma Psicose (plasma metabolites): 0.709 | Fold change of plasma Sorbose (plasma metabolites): 0.698 | Fold change of plasma Tagatose (plasma metabolites): 0.705 | Fold change of plasma Thymine (plasma metabolites): 1.198 | Fold change of plasma Tryptamine (plasma metabolites): 1.469 | effect on plasma glucose levels (plasma metabolites; no food restriction): did not change glucose levels | body weights, vehicle vs ISO treatment group, before and after ISO intervention [2]: remained similar
